Experimental data taken from ChEMBL document CHEMBL1201862, “PubChem BioAssay data set” (2004).
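Tested at 5 concentrations; 48 h exposure; 96-well plates; endpoints linearly interpolated, else capped at highest concentration. Abbreviation: GI50, concentration required for 50% inhibition of growth.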 Calls of active or inactive are those of the source. No stated cut-off is given here; in the data, active = GI50 up to about 1.1 µM and inactive = higher. Square brackets hold non-standard residues; d marks the D form. Peptide text beside a SMILES is read from it. * marks the point of attachment. X26 = COC1=CC(=O)N(C(=O)[C@@H](O*)C(C)C)[C@H]1Cc1ccccc1; NMeV = CN[C@H](C(=O)O)C(C)C; Hexanoyl = CCCCCC(=O)*

Columns and labels:
Experiment in all cases: NCI tumour cell line growth inhibition, 48 h
[1] = test system: RXF 393
[2] = test system: HOP-62
[3] = test system: HCT-116
[4] = test system: SK-MEL-5
[5] = test system: Malme-3M
[6] = test system: U-251
[7] = test system: OVCAR-5
[8] = test system: NCI-H522
[9] = test system: SNB-75
[10] = test system: PC-3
[11] = test system: NCI-H460
[12] = test system: NCI-H226
[13] = test system: 786-0
[14] = test system: CCRF-CEM
[15] = test system: M14
[16] = test system: IGROV-1
[17] = test system: HOP-92
[18] = test system: HT-29
[19] = test system: SK-MEL-28
[20] = test system: OVCAR-8

Measured: GI50

C=C(Br)CNC(=O)Nc1ccc(Cl)c(Cl)c1
inactive: [1] 18.5 µM | [2] 22.5 µM | [3] 17.1 µM | [4] 13.8 µM | [5] 20.1 µM | [6] 22.6 µM | [7] 33.1 µM | [8] 18.6 µM | [9] 21.3 µM | [10] 11.2 µM | [11] 26.5 µM | [12] 25.4 µM | [13] 16 µM | [14] 19.3 µM | [15] 22.2 µM | [16] 13.6 µM | [17] 19.9 µM | [18] 25.1 µM | [19] 28.1 µM

Cc1ccc(S(=O)(=O)NC(=O)NC(Cc2c[nH]c3ccccc23)C(=O)O)cc1 (stereo not given)
inactive: [1] > 100 µM | [2] > 100 µM | [3] > 100 µM | [4] > 100 µM | [5] > 100 µM | [6] > 100 µM | [7] > 100 µM | [8] > 100 µM | [9] > 100 µM | [10] > 100 µM | [11] > 100 µM | [13] > 100 µM | [14] > 100 µM | [15] > 100 µM | [16] > 100 µM | [17] > 100 µM | [18] > 100 µM | [20] > 100 µM | [19] > 100 µM

O=C(NCCCCN(CCCNC(=O)C(F)(F)F)Cc1ccccc1)C(F)(F)F
inactive: [1] > 100 µM | [2] > 100 µM | [3] > 100 µM | [4] > 100 µM | [6] > 100 µM | [7] > 100 µM | [8] > 100 µM | [9] > 100 µM | [10] 92.3 µM | [11] > 100 µM | [12] 35.4 µM | [13] > 100 µM | [14] > 100 µM | [15] > 100 µM | [16] 25.2 µM | [17] > 100 µM | [18] > 100 µM | [20] > 100 µM | [19] > 100 µM

CCCCCC(=O)N[C@H](C(=O)N[C@H](C(=O)N(C)[C@H](C(=O)N1CCC[C@H]1C(=O)N1CCC[C@H]1C(=O)O[C@H](C(=O)N1C(=O)C=C(OC)[C@@H]1Cc1ccccc1)C(C)C)C(C)C)C(C)C)C(C)C (Hexanoyl-VV[NMeV]PP-X26)
inactive: [1] 23.2 µM | [2] > 100 µM | [3] 48.2 µM | [5] > 100 µM | [6] 43.8 µM | [7] 93.5 µM | [8] > 100 µM | [9] 19 µM | [10] 25.2 µM | [11] > 100 µM | [12] > 100 µM | [13] 57.9 µM | [14] 48.6 µM | [16] > 100 µM | [17] 36.2 µM | [18] > 100 µM | [20] > 100 µM | [19] > 100 µM

O=C1CCC(C(=O)O)C2=C1CCCC2 (stereo not given)
inactive: [1] > 100 µM | [2] > 16.4 µM | [3] > 100 µM | [4] > 56.1 µM | [5] > 100 µM | [6] > 15.7 µM | [7] > 21.5 µM | [8] > 100 µM | [9] > 100 µM | [10] > 100 µM | [12] > 14.4 µM | [13] > 28.6 µM | [14] > 100 µM | [15] > 100 µM | [16] > 100 µM | [17] > 100 µM | [18] > 100 µM | [20] > 100 µM | [19] > 100 µM

Nc1ccccc1/N=N/c1c(S(=O)(=O)O)cc2cc(S(=O)(=O)O)cc(O)c2c1O
inactive: [1] > 100 µM | [2] > 100 µM | [3] 26.2 µM | [4] > 100 µM | [5] > 100 µM | [6] > 100 µM | [7] > 100 µM | [8] > 100 µM | [9] > 100 µM | [10] > 100 µM | [12] > 100 µM | [13] 45.7 µM | [14] > 100 µM | [15] > 100 µM | [16] > 100 µM | [17] > 100 µM | [18] > 100 µM | [20] > 100 µM | [19] > 100 µM

COc1cc2c3c(c1)CCCN3CCC2
inactive: [1] > 10 µM | [2] > 10 µM | [3] > 10 µM | [4] > 10 µM | [5] > 10 µM | [6] > 10 µM | [8] > 10 µM | [9] > 10 µM | [10] > 10 µM | [11] > 10 µM | [12] > 10 µM | [13] > 10 µM | [14] > 10 µM | [15] > 10 µM | [16] > 10 µM | [17] > 10 µM | [18] > 10 µM | [20] > 10 µM | [19] > 10 µM

O=C(COc1ccc(OCC(=O)N2C(=O)CC/C2=N\c2ccc(Cl)cc2)cc1)N1C(=O)CS/C1=N\c1ccc(Cl)cc1
inactive: [1] > 100 µM | [2] 73.1 µM | [3] 93.8 µM | [4] 76 µM | [5] 77.3 µM | [6] 29.5 µM | [7] > 100 µM | [8] 63.4 µM | [9] 18.5 µM | [10] 47.1 µM | [11] 72.6 µM | [12] > 100 µM | [13] > 100 µM | [15] 89.7 µM | [16] 47.6 µM | [17] > 100 µM | [18] 48.4 µM | [20] 47.5 µM | [19] > 100 µM

Nc1nc(Cl)nc2c1ncn2C1CCC(COP(=O)(O)OP(=O)(O)OP(=O)(O)O)O1 (stereo not given)
inactive: [1] 24.5 µM | [2] 19.2 µM | [3] 35.2 µM | [5] > 100 µM | [6] 37.5 µM | [7] 22.8 µM | [8] 25.8 µM | [9] 34.4 µM | [10] 23.1 µM | [11] 41.6 µM | [12] 27.7 µM | [13] 37.3 µM | [14] 44.3 µM | [15] 16.8 µM | [16] 30.5 µM | [17] 23.7 µM | [18] 32 µM | [20] 21.4 µM | [19] 20.4 µM

C=CCOC(=O)N1[C@H]2C#C/C=C\C#C[C@]3(O)C(=O)C[C@H](C)[C@]24O[C@]43C2=CC(=O)C=CC21OC (stereo not given in full)
inactive: [1] 20.9 µM | [2] 40.2 µM | [3] 19.8 µM | [5] 43.7 µM | [6] 37.7 µM | [7] 35.2 µM | [8] 18.6 µM | [9] 35.2 µM | [10] 30.6 µM | [11] 13.9 µM | [12] 30.5 µM | [13] 11.6 µM | [14] 16.8 µM | [15] 20.4 µM | [16] 16.7 µM | [17] 38 µM | [18] 27.7 µM | [20] 22.5 µM | [19] 95.9 µM

CC1CC2OC(=N)C1(C#N)C2(C#N)C#N (stereo not given)
inactive: [1] 16.1 µM | [2] 16.8 µM | [3] 16.3 µM | [4] 10.4 µM | [5] 15.8 µM | [6] 27.9 µM | [7] 21.6 µM | [8] 13.5 µM | [9] 11.5 µM | [10] 25.7 µM | [12] 38.4 µM | [13] 17.9 µM | [14] 4.94 µM | [15] 29.6 µM | [16] 20.3 µM | [17] 17.9 µM | [18] 19.4 µM | [20] 25.1 µM | [19] 35.3 µM

COC(CC1(CCNc2ccccc2)C(=O)N(COCC[Si](C)(C)C)c2ccccc21)OC (stereo not given)
inactive: [1] 12.5 µM | [2] 13.7 µM | [3] 13.9 µM | [4] 4.97 µM | [6] 18.2 µM | [7] 16.6 µM | [8] 11.9 µM | [9] 4.46 µM | [10] 11.8 µM | [11] 15 µM | [12] 6 µM | [13] 6.25 µM | [14] 15.8 µM | [15] 2.51 µM | [16] 9.66 µM | [17] 13.8 µM | [18] 16.4 µM | [20] 18.4 µM | [19] 6.98 µM

OCC1OC(n2cnc3c(Cl)nc(Nc4ccc(Cl)c(Cl)c4)nc32)CC1O (stereo not given)
inactive: [1] 10.3 µM | [2] 10.5 µM | [3] 11 µM | [4] 8.34 µM | [5] 12 µM | [6] 10.2 µM | [7] 13.8 µM | [8] 9.29 µM | [9] 15.7 µM | [10] 9.57 µM | [11] 7.91 µM | [12] 8.15 µM | [13] 8.73 µM | [14] 8.65 µM | [15] 10.7 µM | [16] 11.9 µM | [17] 8.18 µM | [18] 7.71 µM | [20] 10.3 µM

COc1cccc2c(=O)oc(-c3ccccc3C)nc12
inactive: [1] 30 µM | [2] 27.3 µM | [3] 29.5 µM | [4] 23 µM | [5] 42.2 µM | [6] 45.4 µM | [7] 61.4 µM | [8] 46.9 µM | [9] > 100 µM | [10] 35.7 µM | [11] 56.9 µM | [12] 19.5 µM | [13] 44.8 µM | [14] 25.9 µM | [16] 18.7 µM | [17] > 100 µM | [18] 39 µM | [20] 48.8 µM | [19] 29.3 µM
